Laboratory results as given in PubChem BioAssay (NCI).
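A five-concentration, 48-hour dose response in 96-well plates underlies each endpoint, interpolated linearly between surrounding concentrations. GI50 is the concentration that inhibits growth by half. TGI is the concentration that stops growth completely.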

Columns and labels:
Experiment in all cases: DTP human tumour cell line panel, 48 h
[1] = system: KM12 colon
[2] = system: MDA-MB-468 breast
[3] = system: TK-10 renal
[4] = system: OVCAR-3 ovarian
[5] = system: UACC-257 melanoma
[6] = system: A498 renal
[7] = system: ACHN renal
[8] = system: EKVX NSCLC
[9] = system: 786-0 renal
[10] = system: HS 578T breast
[11] = system: HL-60(TB) leukemia
[12] = system: CAKI-1 renal
[13] = system: HOP-92 NSCLC
[14] = system: HCT-116 colon
[15] = system: SF-295 CNS
[16] = system: SF-539 CNS
[17] = system: UO-31 renal
[18] = system: MDA-MB-435
[19] = system: RPMI-8226 leukemia
[20] = system: COLO 205 colon
[21] = system: NCI-H522 lung
[22] = system: SK-MEL-5 melanoma
[23] = system: RXF 393 renal
[24] = system: SR leukemia
[25] = system: K-562 leukemia
[26] = system: DU-145 prostate
[27] = system: MDA-MB-231 breast
[28] = system: SF-268 CNS
[29] = system: SW-620 colon
[30] = system: M14 melanoma
[31] = system: NCI-H23 lung
[32] = system: NCI/ADR-RES ovarian
[33] = system: OVCAR-5 ovarian
[34] = system: CCRF-CEM leukemia
[35] = system: HCC-2998 colon
[36] = system: NCI-H226 lung
[37] = system: OVCAR-8 ovarian
[38] = system: MOLT-4 leukemia
[39] = system: SNB-75 CNS
[40] = system: OVCAR-4 ovarian
[41] = system: UACC-62 melanoma
[42] = system: HCT-15 colon
[43] = system: SK-OV-3 ovarian
[44] = system: SN12C renal
[45] = system: LOX IMVI melanoma
[46] = system: A549 NSCLC
[47] = system: SK-MEL-28 melanoma
[48] = system: SNB-19 CNS
[49] = system: SK-MEL-2 melanoma
[50] = system: U251 CNS
[51] = system: HT29 colon
[52] = system: T-47D breast
[53] = system: HOP-62 NSCLC
[54] = system: PC-3 prostate
[55] = system: MCF7 breast
[56] = system: BT-549 breast
[57] = system: IGROV1 ovarian
[58] = system: NCI-H460 lung
[59] = system: MALME-3M melanoma

Compound: CN(C)c1nc(NCCNS(=O)(=O)c2ccc(C(=O)/C=C/c3ccccc3)cc2)nc(Nc2ccc(F)cc2)n1
- GI50 [1]: 3.74 µM
- TGI [1]: 14 µM
- GI50 [2]: 2.84 µM
- TGI [2]: 12.8 µM
- GI50 [3]: 14.6 µM
- TGI [3]: 30.9 µM
- GI50 [4]: 8.59 µM
- TGI [4]: 21.4 µM
- GI50 [5]: 12.6 µM
- TGI [5]: 27.8 µM
- GI50 [6]: 11.6 µM
- TGI [6]: 24 µM
- GI50 [7]: 4.92 µM
- TGI [7]: 17.3 µM
- GI50 [8]: 4.48 µM
- TGI [8]: 14.8 µM
- GI50 [9]: 11.2 µM
- TGI [9]: 25.3 µM
- GI50 [10]: 7.39 µM
- TGI [10]: 57.8 µM
- GI50 [11]: 3.88 µM
- TGI [11]: 29.3 µM
- GI50 [12]: 4.75 µM
- TGI [12]: 19.7 µM
- GI50 [13]: 8.1 µM
- TGI [13]: 23.4 µM
- GI50 [14]: 1.72 µM
- TGI [14]: 3.24 µM
- GI50 [15]: 6.96 µM
- TGI [15]: 19.3 µM
- GI50 [16]: 12 µM
- TGI [16]: 24.5 µM
- GI50 [17]: 4.6 µM
- TGI [17]: 17.2 µM
- GI50 [18]: 7.44 µM
- TGI [18]: 23 µM
- GI50 [19]: 3.04 µM
- TGI [19]: > 100 µM
- GI50 [20]: 5.46 µM
- TGI [20]: 20.8 µM
- GI50 [21]: 5.47 µM
- TGI [21]: 20.4 µM
- GI50 [22]: 4.7 µM
- TGI [22]: 16.9 µM
- GI50 [23]: 2.94 µM
- TGI [23]: 14.6 µM
- GI50 [24]: 2.58 µM
- TGI [24]: 8.25 µM
- GI50 [25]: 3.34 µM
- TGI [25]: 18.6 µM
- GI50 [26]: 12.1 µM
- TGI [26]: 25.3 µM
- GI50 [27]: 4.84 µM
- TGI [27]: 18.1 µM
- GI50 [28]: 5.65 µM
- TGI [28]: 22.2 µM
- GI50 [29]: 5.56 µM
- TGI [29]: 20.4 µM
- GI50 [30]: 5.98 µM
- TGI [30]: 20 µM
- GI50 [31]: 10.1 µM
- TGI [31]: 22.5 µM
- GI50 [32]: 7.33 µM
- TGI [32]: 21.1 µM
- GI50 [33]: 13.3 µM
- TGI [33]: 26.6 µM
- GI50 [34]: 6.59 µM
- TGI [34]: > 100 µM
- GI50 [35]: 2.35 µM
- TGI [35]: 5.46 µM
- GI50 [36]: 5.22 µM
- TGI [36]: 19.8 µM
- GI50 [37]: 12.2 µM
- TGI [37]: 26.4 µM
- GI50 [38]: 3.22 µM
- TGI [38]: 29.6 µM
- GI50 [39]: 3.23 µM
- TGI [39]: 33.4 µM
- GI50 [40]: 4.39 µM
- TGI [40]: 23.1 µM
- GI50 [41]: 6.68 µM
- TGI [41]: 20.3 µM
- GI50 [42]: 2.04 µM
- TGI [42]: 3.84 µM
- GI50 [43]: 13 µM
- TGI [43]: 29.7 µM
- GI50 [44]: 8.2 µM
- TGI [44]: 20.7 µM
- GI50 [45]: 2.47 µM
- TGI [45]: 7.14 µM
- GI50 [46]: 8.33 µM
- TGI [46]: 26 µM
- GI50 [47]: 10.2 µM
- TGI [47]: 22.2 µM
- GI50 [48]: 10.4 µM
- TGI [48]: 23 µM
- GI50 [49]: 10.6 µM
- TGI [49]: 24.3 µM
- GI50 [50]: 10.4 µM
- TGI [50]: 24.5 µM
- GI50 [51]: 3.08 µM
- TGI [51]: 10.6 µM
- GI50 [52]: 3.45 µM
- TGI [52]: 14.2 µM
- GI50 [53]: 11.8 µM
- TGI [53]: 26.8 µM
- GI50 [54]: 4.39 µM
- TGI [54]: 20.6 µM
- GI50 [55]: 1.99 µM
- TGI [55]: 4.05 µM
- GI50 [56]: 13.9 µM
- TGI [56]: 27.5 µM
- GI50 [57]: 11.2 µM
- TGI [57]: 23.8 µM
- GI50 [58]: 4.34 µM
- TGI [58]: 16.8 µM
- GI50 [59]: 12.7 µM
- TGI [59]: 26.3 µM
